The source of these data is ChEMBL document CHEMBL1201862, “PubChem BioAssay data set” (2004).

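Briefly, cells in 96-well plates were exposed to five compound concentrations for 48 h, and endpoints were estimated by linear interpolation. Abbreviation: GI50, concentration required for 50% inhibition of growth.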 The source made the active and inactive calls. No stated cut-off is given here; in the data, active = GI50 up to about 1.1 µM and inactive = higher. Some results are limits rather than exact numbers.

Test systems include A549; COLO 205; HCC 2998; HCT-15; Hs-578T; K562; KM12; MDA-MB-435; NCI-H522; NCI/ADR-RES; OVCAR-5; OVCAR-8; SF-539; SNB-75; SR; T47D; U-251; A498; HL-60; HOP-92.
Assay in all cases: NCI tumour cell line growth inhibition, 48 h

Take `CC(=O)/C=C(/C=N/O)c1ccccc1`: the GI50 is > 100 µM (inactive) with A549; > 100 µM (inactive) with COLO 205; > 100 µM (inactive) in the experiment with HCC 2998; 64.3 µM in the experiment on HCT-15; > 100 µM (inactive) with Hs-578T; > 100 µM (inactive) in the experiment on K562. The GI50 in the experiment on KM12, in the experiment on MDA-MB-435, in the experiment on NCI-H522, in the experiment on NCI/ADR-RES, in the experiment on OVCAR-5 and with OVCAR-8 was > 100 µM (inactive) in each case. In addition, the GI50 in the experiment on SF-539 was > 100 µM (inactive); in the experiment with SNB-75, 56 µM (inactive); in the experiment on SR, > 100 µM (inactive); with T47D, > 100 µM (inactive); with U-251, > 100 µM (inactive).
Consider `COc1ccc(CC(N)c2ccc(OC)cc2)cc1` (stereo unspecified), for which the GI50 is > 100 µM (inactive) with A498; > 100 µM (inactive) in the experiment with A549; 18.2 µM (inactive) in the experiment on COLO 205; 18.3 µM (inactive) in the experiment on HCC 2998; more than 100 µM in the experiment on HCT-15; 49.7 µM (inactive) in the experiment with HL-60. Further, the GI50 was 29.4 µM (inactive) in the experiment with HOP-92; 43.9 µM (inactive) in the experiment with Hs-578T; 33.1 µM (inactive) in the experiment with K562; 50 µM (inactive) in the experiment with KM12; 37.2 µM (inactive) in the experiment with MDA-MB-435; > 100 µM (inactive) in the experiment with NCI-H522. The GI50 was > 100 µM (inactive) with NCI/ADR-RES; > 100 µM (inactive) with OVCAR-5; > 100 µM (inactive) in the experiment with OVCAR-8; 77.1 µM (inactive) in the experiment on SNB-75; 46.3 µM (inactive) with T47D; 95.3 µM (inactive) in the experiment on U-251.
As for `CCOC(=O)C1C(C(C)C)C2(C#N)C(=N)OC1(C)C2(C#N)C#N` (stereo unspecified), the GI50 in the experiment on A498 was > 100 µM (inactive); in the experiment on A549, > 100 µM (inactive); in the experiment on COLO 205, 7.46 µM (inactive); with HCC 2998 it was > 100 µM (inactive); with HCT-15 it was 49.3 µM; in the experiment on HL-60, 30 µM (inactive). Further, the GI50 was 21.2 µM (inactive) in the experiment on HOP-92; > 100 µM (inactive) in the experiment with Hs-578T; 30.8 µM (inactive) with K562; > 100 µM (inactive) in the experiment with KM12; 35.3 µM (inactive) in the experiment on MDA-MB-435; 26 µM (inactive) in the experiment with NCI-H522. Moreover, the GI50 in the experiment on NCI/ADR-RES is 45.5 µM (inactive); with OVCAR-5, > 100 µM (inactive); with OVCAR-8 it was > 100 µM (inactive); with SF-539, > 100 µM (inactive); in the experiment with SNB-75, 13.3 µM (inactive); in the experiment with T47D, 49.7 µM (inactive). Further, the GI50 in the experiment on U-251 is 82.4 µM (inactive).
Turning to `N#Cc1sc2c(c1OC(=O)c1ccco1)c(=O)n(-c1ccccc1)c(=S)n2-c1ccccc1`, the GI50 is 35.9 µM (inactive) in the experiment on A549; 22.8 µM (inactive) in the experiment with COLO 205; 55.7 µM (inactive) in the experiment with HCC 2998; 20 µM in the experiment on HCT-15; 67.5 µM (inactive) in the experiment on HL-60; 57.4 µM (inactive) in the experiment with Hs-578T. Besides, the GI50 in the experiment with K562 was 15 µM (inactive); in the experiment with KM12 it was 30.3 µM (inactive); in the experiment with MDA-MB-435, 27.7 µM (inactive); in the experiment with NCI-H522 it was 27.4 µM (inactive); in the experiment with NCI/ADR-RES, 26.6 µM (inactive); in the experiment with OVCAR-8 it was 29.9 µM (inactive). Also, the GI50 is 26.1 µM (inactive) in the experiment on SF-539; 18.8 µM (inactive) in the experiment on SNB-75; > 10 µM (inactive) in the experiment with SR; 21.1 µM (inactive) with T47D; 25.3 µM (inactive) in the experiment on U-251.
